Assay results as given in patent US20240174634A1, “Aldehyde Dehydrogenase Inhibitors and Their Therapeutic Use” (priority 2020, published 2024).

Target: T1, ALDH1A3 (Homo sapiens, UniProt P47895)
T1 sequence (P47895 1-512): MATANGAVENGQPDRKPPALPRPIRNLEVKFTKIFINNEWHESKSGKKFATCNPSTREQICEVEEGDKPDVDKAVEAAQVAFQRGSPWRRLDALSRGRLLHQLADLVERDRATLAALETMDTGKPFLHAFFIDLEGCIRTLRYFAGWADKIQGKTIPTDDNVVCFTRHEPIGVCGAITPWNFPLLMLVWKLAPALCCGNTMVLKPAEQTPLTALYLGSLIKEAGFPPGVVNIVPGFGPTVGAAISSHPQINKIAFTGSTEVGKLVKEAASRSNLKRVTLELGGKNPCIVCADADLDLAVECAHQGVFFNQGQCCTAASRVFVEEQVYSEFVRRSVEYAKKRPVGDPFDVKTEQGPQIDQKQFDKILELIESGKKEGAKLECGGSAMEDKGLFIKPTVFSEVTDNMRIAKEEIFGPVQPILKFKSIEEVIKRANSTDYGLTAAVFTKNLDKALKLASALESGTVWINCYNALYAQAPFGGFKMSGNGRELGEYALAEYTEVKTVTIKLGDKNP
Test: Primary biochemical assay, NAD(P)H-Glo Detection System
Parameters: His-tag; made in house; host or cells: E. coli Rosetta (DE3)
Details: 30 min pre-incubation, propionaldehyde and NAD at Km
Procedure, shortened: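 Recombinant full-length His-tagged human enzymes expressed in E. coli were pre-incubated 30 min at room temperature with compound (10-point, 3-fold series; top 20 μM for ALDH1A3, 250 μM for ALDH1A1/1A2). Propionaldehyde and NAD were then added at Km; NADH was read by NAD(P)H-Glo luminescence. Buffer: Tris (pH 7.6 for 1A1/1A2, 9.0 for 1A3), 1 mM TCEP, 0.01% Tween-20.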

Q: With `O=C1CCc2cc(NC(=O)c3ncsc3-c3cccnc3)ccc2N1` [ALDHI-1010, N-(2-oxo-3,4-dihydro-1H-quinolin-6-yl)-5-(3-pyridyl)thiazole-4-carboxamide] as the compound, how does the IC50 read?
A: Its IC50 is 1000 to 10000 nM.

Q: How did the IC50 turn out when `C[C@H](c1ccccc1)N(CCO)CCOc1ccc2c(c1)CCC(=O)N2` [ALDHI-3006, 6-[2-[2-hydroxyethyl-[(1R)-1-phenylethyl]amino]ethoxy]-3,4-dihydro-1H-quinolin-2-one] was run?
A: Its IC50 is 100 to 1000 nM.

Q: With `O=C1CCc2cc(OCCN3CCCC3c3ccc(F)c(F)c3)ccc2N1` (stereo not drawn) [ALDHI-2039, 6-[2-[2-(3,4-difluorophenyl)pyrrolidin-1-yl]ethoxy]-3,4-dihydro-1H-quinolin-2-one] as the compound, how does the IC50 read?
A: The IC50 was less than 100 nM.

Q: With `Cc1noc(-c2ccccc2C(=O)Nc2ccc3c(c2)CCC(=O)N3)n1` [ALDHI-1008, 2-(3-methyl-1,2,4-oxadiazol-5-yl)-N-(2-oxo-1,2,3,4-tetrahydroquinolin-6-yl)benzamide] as the compound, how does the IC50 read?
A: The IC50 was 100 to 1000 nM.

Q: `O=C1CCc2cc(NC(=O)c3ncsc3-c3ccsc3)ccc2N1` [ALDHI-1011, N-(2-oxo-3,4-dihydro-1H-quinolin-6-yl)-5-(3-thienyl)thiazole-4-carboxamide] was tested. Which IC50 did it give?
A: Its IC50 is 100 to 1000 nM.

Q: `O=C1CCc2cc(NC(=O)c3scnc3-c3cccc(F)c3)ccc2N1` [ALDHI-1003, 4-(3-fluorophenyl)-N-(2-oxo-3,4-dihydro-1H-quinolin-6-yl)thiazole-5-carboxamide] was tested. Which IC50 did it give?
A: Its IC50 is less than 100 nM.

Q: With `Cn1cc(C2CCCN2CCOc2ccc3c(c2)SCC(=O)N3)cn1` (stereo not drawn) [ALDHI-2026, 7-[2-[2-(1-methylpyrazol-4-yl)pyrrolidin-1-yl]ethoxy]-4H-1,4-benzothiazin-3-one] as the compound, how does the IC50 read?
A: The IC50 was 100 to 1000 nM.

Q: Which IC50 does the source give for `O=C1CSc2cc(OCCN3CCCC3c3cccnc3)ccc2N1` (stereo not drawn) [ALDHI-2028, 7-[2-[2-(3-pyridyl)pyrrolidin-1-yl]ethoxy]-4H-1,4-benzothiazin-3-one] here?
A: Its IC50 is less than 100 nM.

Q: With `O=C1CCc2cc(OCCN3CCC[C@H]3c3cccc(F)c3)ccc2N1` [ALDHI-2018, 6-[2-[(2S)-2-(3-fluorophenyl)pyrrolidin-1-yl]ethoxy]-3,4-dihydro-1H-quinolin-2-one] as the compound, how does the IC50 read?
A: The IC50 was less than 100 nM.

Q: How did the IC50 turn out when `CN(CCOc1ccc2c(c1)CCC(=O)N2)C(CO)c1cccc(F)c1` (stereo not drawn) [ALDHI-3003, 6-[2-[[1-(3-fluorophenyl)-2-hydroxy-ethyl]-methyl-amino]ethoxy]-3,4-dihydro-1H-quinolin-2-one] was run?
A: The IC50 was 100 to 1000 nM.

Q: For `CC1Cc2cc(OCCN3CCCC3c3cccc(F)c3)ccc2NC1=O` (stereo not drawn) [ALDHI-2048, 6-[2-[2-(3-fluorophenyl)pyrrolidin-1-yl]ethoxy]-3-methyl-3,4-dihydro-1H-quinolin-2-one], which IC50 is on record?
A: The IC50 was less than 100 nM.

Q: Which IC50 does the source give for `O=C1CCc2cc(NC(=O)c3sc(N4CC(O)C4)nc3-c3cccc(F)c3)ccc2N1` [ALDHI-1004, 4-(3-fluorophenyl)-2-(3-hydroxyazetidin-1-yl)-N-(2-oxo-3,4-dihydro-1H-quinolin-6-yl)thiazole-5-carboxamide] here?
A: Its IC50 is less than 100 nM.

Q: `O=C1CCc2cc(OCCN3CCOCC3c3cccc(F)c3)ccc2N1` (stereo not drawn) [ALDHI-2031, 6-[2-[3-(3-fluorophenyl)morpholin-4-yl]ethoxy]-3,4-dihydro-1H-quinolin-2-one] was tested. Which IC50 did it give?
A: The IC50 was less than 100 nM.

Q: With `O=C1CCc2cc(OCCN3CCCCC3c3cccc(F)c3)ccc2N1` (stereo not drawn) [ALDHI-2038, 6-[2-[2-(3-fluorophenyl)-1-piperidyl]ethoxy]-3,4-dihydro-1H-quinolin-2-one] as the compound, how does the IC50 read?
A: Its IC50 is less than 100 nM.

Q: With `O=C1CCc2cc(OCCN3CCCC3c3ccsc3)ccc2N1` (stereo not drawn) [ALDHI-2014, 6-[2-[2-(3-thienyl)pyrrolidin-1-yl]ethoxy]-3,4-dihydro-1H-quinolin-2-one] as the compound, how does the IC50 read?
A: Its IC50 is less than 100 nM.

Q: Which IC50 does the source give for `CC1(c2cccc(F)c2)CCCN1CCOc1ccc2c(c1)CCC(=O)N2` (stereo not drawn) [ALDHI-2037, 6-[2-[2-(3-fluorophenyl)-2-methyl-pyrrolidin-1-yl]ethoxy]-3,4-dihydro-1H-quinolin-2-one] here?
A: Its IC50 is less than 100 nM.

Q: Which IC50 does the source give for `O=C1CCc2cc(OCCN3CC(F)CC3c3cccc(F)c3)ccc2N1` (stereo not drawn) [ALDHI-2052, 6-[2-[4-fluoro-2-(3-fluorophenyl)pyrrolidin-1-yl]ethoxy]-3,4-dihydro-1H-quinolin-2-one] here?
A: The IC50 was less than 100 nM.

Q: How did the IC50 turn out when `CN(C)c1nc(-c2cccc(F)c2)c(C(=O)Nc2ccc3c(c2)CCC(=O)N3)s1` [ALDHI-1002, 2-(dimethylamino)-4-(3-fluorophenyl)-N-(2-oxo-3,4-dihydro-1H-quinolin-6-yl)thiazole-5-carboxamide] was run?
A: The IC50 was less than 100 nM.

Q: `O=C1CCc2cc(NC(=O)c3cncnc3-c3cccc(F)c3)ccc2N1` [ALDHI-1018, 4-(3-fluorophenyl)-N-(2-oxo-3,4-dihydro-1H-quinolin-6-yl)pyrimidine-5-carboxamide] was tested. Which IC50 did it give?
A: Its IC50 is 100 to 1000 nM.

Q: With `CN(CCOc1ccc2c(c1)CCC(=O)N2)Cc1cccnc1` [ALDHI-3010, 6-[2-[methyl(3-pyridylmethyl)amino]ethoxy]-3,4-dihydro-1H-quinolin-2-one] as the compound, how does the IC50 read?
A: The IC50 was 100 to 1000 nM.

Q: `O=C1CCc2cc(OCCN3CCCC3c3cc(F)cc(F)c3)ccc2N1` (stereo not drawn) [ALDHI-2032, 6-[2-[2-(3,5-difluorophenyl)pyrrolidin-1-yl]ethoxy]-3,4-dihydro-1H-quinolin-2-one] was tested. Which IC50 did it give?
A: The IC50 was less than 100 nM.

Q: For `O=C1CCc2cc(OCCN(CCO)Cc3cccnc3)ccc2N1` [ALDHI-3005, 6-[2-[2-hydroxyethyl(3-pyridylmethyl)amino]ethoxy]-3,4-dihydro-1H-quinolin-2-one], which IC50 is on record?
A: Its IC50 is less than 100 nM.

Q: For `O=c1ccc2cc(OCCN3CCCC3c3cccc(F)c3)ccc2[nH]1` (stereo not drawn) [ALDHI-2022, 6-[2-[2-(3-fluorophenyl)pyrrolidin-1-yl]ethoxy]-1H-quinolin-2-one], which IC50 is on record?
A: The IC50 was less than 100 nM.

Q: `O=C1CCc2cc(OCCN3CC(O)CC3c3cccc(F)c3)ccc2N1` (mixture of isomers) [ALDHI-2035, 6-[2-[2-(3-fluorophenyl)-4-hydroxy-pyrrolidin-1-yl]ethoxy]-3,4-dihydro-1H-quinolin-2-one] was tested. Which IC50 did it give?
A: Its IC50 is less than 100 nM.

Q: Which IC50 does the source give for `O=C1COc2cc(NC(=O)c3scnc3-c3cccc(F)c3)ccc2N1` [ALDHI-1016, 4-(3-fluorophenyl)-N-(3-oxo-4H-1,4-benzoxazin-7-yl)thiazole-5-carboxamide] here?
A: The IC50 was 100 to 1000 nM.

Q: For `CN(CCOc1ccc2c(c1)CCC(=O)N2)C(=O)c1cccc(F)c1` [ALDHI-3008, 3-fluoro-N-methyl-N-[2-[(2-oxo-3,4-dihydro-1H-quinolin-6-yl)oxy]ethyl]benzamide], which IC50 is on record?
A: The IC50 was 100 to 1000 nM.

Q: With `O=C1CCc2cc(OCCN3CCCC3c3cccnc3)ccc2N1` (stereo not drawn) [ALDHI-2005, 6-[2-[2-(3-pyridyl)pyrrolidin-1-yl]ethoxy]-3,4-dihydro-1H-quinolin-2-one] as the compound, how does the IC50 read?
A: Its IC50 is less than 100 nM.

Q: Which IC50 does the source give for `O=C1CCc2cc(OCCN3C(=O)CCC3c3ccccc3)ccc2N1` (stereo not drawn) [ALDHI-2051, 6-[2-(2-oxo-5-phenyl-pyrrolidin-1-yl)ethoxy]-3,4-dihydro-1H-quinolin-2-one] here?
A: The IC50 was less than 100 nM.

Q: Which IC50 does the source give for `O=C1CSc2cc(OCCN3CCCC3c3ccncc3)ccc2N1` (stereo not drawn) [ALDHI-2029, 7-[2-[2-(4-pyridyl)pyrrolidin-1-yl]ethoxy]-4H-1,4-benzothiazin-3-one] here?
A: The IC50 was 100 to 1000 nM.

Q: How did the IC50 turn out when `C[C@@H](c1ccccc1)N(CCO)CCOc1ccc2c(c1)CCC(=O)N2` [ALDHI-3007, 6-[2-[2-hydroxyethyl-[(1S)-1-phenylethyl]amino]ethoxy]-3,4-dihydro-1H-quinolin-2-one] was run?
A: Its IC50 is 100 to 1000 nM.

Q: How did the IC50 turn out when `Cc1ccccc1C1CCCN1CCOc1ccc2c(c1)CCC(=O)N2` (stereo not drawn) [ALDHI-2012, 6-[2-[2-(o-tolyl)pyrrolidin-1-yl]ethoxy]-3,4-dihydro-1H-quinolin-2-one] was run?
A: The IC50 was 100 to 1000 nM.

Q: Which IC50 does the source give for `O=C1CCc2cc(OCCN3CCCC3c3ccccc3)ccc2N1` (stereo not drawn) [ALDHI-2019, 6-[2-(2-phenylpyrrolidin-1-yl)ethoxy]-3,4-dihydro-1H-quinolin-2-one] here?
A: The IC50 was 100 to 1000 nM.

Q: With `O=C1CCc2cc(NC(=O)c3sc(N4CCOCC4)nc3-c3cccc(F)c3)ccc2N1` [ALDHI-1001, 4-(3-fluorophenyl)-2-morpholino-N-(2-oxo-3,4-dihydro-1H-quinolin-6-yl)thiazole-5-carboxamide] as the compound, how does the IC50 read?
A: The IC50 was less than 100 nM.

Q: `CCn1cc(C2CCCN2CCOc2ccc3c(c2)CCC(=O)N3)cn1` (stereo not drawn) [ALDHI-2016, 6-[2-[2-(1-ethylpyrazol-4-yl)pyrrolidin-1-yl]ethoxy]-3,4-dihydro-1H-quinolin-2-one] was tested. Which IC50 did it give?
A: The IC50 was 100 to 1000 nM.

Q: With `O=C1CCc2cc(NC(=O)c3scnc3-c3ccccc3Cl)ccc2N1` [ALDHI-1012, 4-(2-chlorophenyl)-N-(2-oxo-3,4-dihydro-1H-quinolin-6-yl)thiazole-5-carboxamide] as the compound, how does the IC50 read?
A: Its IC50 is 1000 to 10000 nM.

Q: With `Cc1ccc(C2CCCN2CCOc2ccc3c(c2)CCC(=O)N3)cn1` (stereo not drawn) [ALDHI-2030, 6-[2-[2-(6-methyl-3-pyridyl)pyrrolidin-1-yl]ethoxy]-3,4-dihydro-1H-quinolin-2-one] as the compound, how does the IC50 read?
A: Its IC50 is 100 to 1000 nM.

Q: `O=C1CCc2cc(NC(=O)c3ncsc3-c3cccc(F)c3)ccc2N1` [ALDHI-1014, 5-(3-fluorophenyl)-N-(2-oxo-3,4-dihydro-1H-quinolin-6-yl)thiazole-4-carboxamide] was tested. Which IC50 did it give?
A: The IC50 was 100 to 1000 nM.

Q: For `O=C1CCc2cc(OCCN3CCCC3c3ccccc3F)ccc2N1` (stereo not drawn) [ALDHI-2002, 6-[2-[2-(2-fluorophenyl)pyrrolidin-1-yl]ethoxy]-3,4-dihydro-1H-quinolin-2-one], which IC50 is on record?
A: Its IC50 is less than 100 nM.

Q: For `CC1(C)Oc2cc(OCCN3CCCC3c3cccc(F)c3)ccc2NC1=O` (stereo not drawn) [ALDHI-2043, 7-[2-[2-(3-fluorophenyl)pyrrolidin-1-yl]ethoxy]-2,2-dimethyl-4H-1,4-benzoxazin-3-one], which IC50 is on record?
A: Its IC50 is 100 to 1000 nM.
